SMILES strings stand for the structures.

This assay relates to AML3. Kind of assay: Cell proliferation of cancerous cell lines. The settings on record: AML3; read-out: Antineoplastic effect of tested compounds on cell proliferation of cancerous AML3 cells, IC50. The assay is classed as cell-based.
For `C#CCCC(=O)NCCCN(C)CCCNc1nc(Cc2ccccc2)nc2[nH]c3cc(C(=O)OC)ccc3c12`, the IC50 fell in the range of 0.5 to 1 µM.
Next, `COC(=O)c1ccc2[nH]c3nc(Cc4ccccc4)nc(NCCCN4CCCCC4)c3c2c1` [drawing 103]: 2 to 5 µM.
In the case of `COC(=O)c1ccc2c(c1)[nH]c1nc(Cc3ccccc3)nc(NCCN(C)CCN)c12`, the IC50 lay within 1 to 2 µM.
Take `COC(=O)c1ccc2c(c1)[nH]c1nc(Cc3ccccc3)nc(NCCCN(C)CCCNc3ncnc4[nH]c5ccccc5c34)c12`: the IC50 lay in the range of 2 to 5 µM.
The same measure for `Cn1nnc(-c2ccc3c(c2)[nH]c2ncnc(NCC(O)CN4CCCCC4)c23)n1` (stereo not drawn): 1 to 2 µM.
Consider `CN(C)CCCN(C)c1ncnc2[nH]c3cc(-c4nnn(C)n4)ccc3c12`, for which the IC50 fell in the range of 1 to 2 µM.
Next, `COC(=O)c1ccc2c(c1)[nH]c1ncnc(NCCCN(C)CCCN)c12`: 2 to 5 µM; `C#CCNCCCN(C)CCCNc1nc(Cc2ccccc2)nc2[nH]c3cc(C(=O)OC)ccc3c12`: 1 to 2 µM; `COC(=O)c1ccc2c(c1)[nH]c1nc(Cc3ccc(Br)cc3)nc(NCCCN3CCCCC3)c12`: 0.5 to 1 µM.
Next, `COC(=O)c1ccc2c(c1)[nH]c1nc(Cc3ccccc3)cc(NCCCN3CCCCC3)c12`: 2 to 5 µM.
The same measure for `COC(=O)c1ccc2c(c1)[nH]c1nc(Cc3ccccc3)nc(NCCCN(C)CCOCCOCCO)c12`: 0.5 to 1 µM.
Take `COC(=O)c1ccc2c(c1)[nH]c1ncnc(NC3CCC(N(C)C)CC3)c12` (stereo not drawn): the IC50 fell in the range of 2 to 5 µM.
The same measure for `Cn1nnc(-c2ccc3c(c2)[nH]c2ncnc(NCCCCN4CCCCC4)c23)n1`: 1 to 2 µM; for `COC(=O)c1ccc2c(c1)[nH]c1nc(Cc3ccncc3)nc(NCCCN3CCCCC3)c12`: 2 to 5 µM; for `COC(=O)c1ccc2c(c1)[nH]c1nc(Cc3cccc(F)c3)nc(NCCCN3CCCCC3)c12`: 2 to 5 µM.
The same measure for `COC(=O)c1ccc2c(c1)[nH]c1nc(Cc3ccccc3)nc(Nc3cccc(NC(C)=O)c3)c12`: 2 to 5 µM; for `CNCCNc1nc(Cc2ccccc2)nc2[nH]c3cc(C(=O)OC)ccc3c12`: 0.5 to 1 µM; for `COC(=O)c1ccc2c(c1)[nH]c1ncnc(NCCCN3CCCCC3C)c12` (stereo not drawn): 2 to 5 µM.
The same measure for `Cn1nnc(-c2ccc3c(c2)[nH]c2nc(Cc4ccccc4)nc(NCCCNCCCN)c23)n1`: 2 to 5 µM; for `COC(=O)c1ccc2c(c1)[nH]c1nc(CCc3ccccc3)nc(NCCCN3CCCCC3)c12`: 2 to 5 µM; for `COC(=O)c1ccc2c(c1)[nH]c1ncnc(N[C@H]3CC[C@H](N)CC3)c12`: 1 to 2 µM.
With `COC(=O)c1ccc2c(c1)[nH]c1ccnc(NCCCN3CCCCC3)c12`, the IC50 lay within 1 to 2 µM.
The same measure for `CC(=O)NCCNc1nc(Cc2ccccc2)nc2[nH]c3cc(-c4nnn(C)n4)ccc3c12`: 2 to 5 µM; for `Cc1nc(-c2ccc3c(c2)[nH]c2ncnc(NCCCN4CCCCC4)c23)no1`: 2 to 5 µM.
The same measure for `CN(CCCN1CCCCC1)c1ncnc2[nH]c3cc(-c4nnn(C)n4)ccc3c12`: 1 to 2 µM; for `COC(=O)c1ccc2c(c1)[nH]c1cc(Cc3cccc(O)c3)nc(NCCCCN3CCCC3)c12`: 1 to 2 µM; for `COC(=O)c1cnc2c(c1)[nH]c1nc(Cc3ccc4ccccc4c3)nc(NCCCN3CCCCC3)c12`: 1 to 2 µM.
The same measure for `COC(=O)c1ccc2c(c1)[nH]c1nc(Cc3ccccc3)nc(SCCCN3CCCCC3)c12`: 2 to 5 µM.
Turning to `COC(=O)c1ccc2c(c1)[nH]c1nc(Cc3ccccc3)nc(NCCCN3CCCCC3)c12`, the IC50 was in the range of 1 to 2 µM.
The same measure for `COC(=O)c1ccc2c(c1)[nH]c1ncnc(NCCCN)c12`: 1 to 2 µM; for `Cc1nnc(-c2ccc3c(c2)[nH]c2ncnc(NCCCN4CCCCC4)c23)o1`: 2 to 5 µM.
For `COC(=O)c1ccc2c(c1)[nH]c1nc(Cc3ccccc3)nc(NCC3CCNC3)c12` (stereo not drawn), the IC50 lay in the range of 0.5 to 1 µM.
The same measure for `COC(=O)c1ccc2c(c1)[nH]c1nc(CN(C)C)nc(NCCCN3CCCCC3)c12`: 2 to 5 µM; for `Cn1nnc(-c2ccc3c(c2)[nH]c2cc(Cc4ccccc4)nc(NCCCN4CCCCC4)c23)n1`: 1 to 2 µM.
Next, `Cn1nnc(-c2ccc3c(c2)[nH]c2ncnc(NCCCN4CCCC4)c23)n1`: 1 to 2 µM; `COC(=O)c1ccc2c(c1)[nH]c1nc(C)nc(NCCCN3CCCCC3)c12`: 2 to 5 µM; `COC(=O)c1cnc2c(c1)[nH]c1nc(C(C)c3ccccc3)nc(NCCCN3CCCCC3)c12` (stereo not drawn): 2 to 5 µM.
The same measure for `COC(=O)c1ccc2c(c1)[nH]c1nc(Cc3ccccc3)nc(NCCCN3CCOCC3)c12`: 2 to 5 µM; for `Cn1nnc(-c2ccc3c(c2)[nH]c2ncnc(N[C@H]4CC[C@H](N)CC4)c23)n1`: 1 to 2 µM; for `CN(CCCN)CCCNc1nc(Cc2ccccc2)nc2[nH]c3cc(-c4nnn(C)n4)ccc3c12`: 0.5 to 1 µM.
With `COC(=O)c1ccc2c(c1)[nH]c1nc(Cc3ccccc3)nc(Nc3cccc(CO)c3)c12`, the IC50 is 2 to 5 µM.
Next, `COC(=O)c1ccc2c(c1)[nH]c1cc(Cc3ccccc3)nc(NCCN3CCCC3)c12`: 2 to 5 µM; `C#Cc1cccc(Cc2nc(NCCN(C)CCN)c3c(n2)[nH]c2cc(-c4nnn(C)n4)ccc23)c1`: 2 to 5 µM; `Cn1nnc(-c2ccc3c(c2)[nH]c2nc(Cc4ccccc4)nc(NCCCNCCCNC(=O)CCCC[C@@H]4SC[C@@H]5NC(=O)N[C@@H]54)c23)n1`: 1 to 2 µM.
Next, `Cn1nnc(-c2ccc3c(c2)[nH]c2nc(Cc4ccccc4)nc(NCCCN4CCCCC4)c23)n1`: 0.5 to 1 µM.
Next, `COC(=O)c1ccc2c(c1)[nH]c1nc(Cc3ccccc3)nc(NCCCCCCCN)c12`: 1 to 2 µM; `COC(=O)c1ccc2c(c1)[nH]c1nc(Cc3ccccn3)nc(NCCCN3CCCCC3)c12`: 2 to 5 µM.
Turning to `COC(=O)c1ccc2c(c1)[nH]c1nc(Cc3ccccc3)nc(NCCCN(C)CCCNC(=N)N)c12`, the IC50 was less than 0.5 µM.
The same measure for `COC(=O)c1ccc2c3c(NCCCN4CCCCC4)ncnc3n(C)c2c1`: 1 to 2 µM.
Next, `COC(=O)c1ccc2c(c1)[nH]c1nc(Cc3ccccc3)nc(Cl)c12`: 1 to 2 µM; `COC(=O)c1ccc2c(c1)[nH]c1cc(Cc3ccsc3)nc(NCCCN3CCCCC3)c12`: 2 to 5 µM; `CN(C)CCNc1ncnc2[nH]c3cc(-c4nnn(C)n4)ccc3c12`: 0.5 to 1 µM.
The same measure for `COC(=O)c1ccc2c(c1)[nH]c1nc(C(C)c3ccccc3)nc(NCCCN3CCCCC3)c12` (stereo not drawn): 2 to 5 µM; for `Cn1nnc(-c2ccc3c(c2)[nH]c2nc(Cc4ccccc4)nc(NCCCN4CCCC4)c23)n1`: less than 0.5 µM; for `c1ccc(-c2ccc3c(c2)[nH]c2ncnc(NCCCN4CCCCC4)c23)cc1`: 2 to 5 µM.
On to `COC(=O)c1ccc2c(c1)[nH]c1nc(Cc3ccccc3)nc(NCCCCCN(C)C)c12`, for which the IC50 was 0.5 to 1 µM.
The same measure for `COC(=O)c1ccc2c(c1)[nH]c1nc(C(OCc3ccccc3)c3ccccc3)nc(NCCCN3CCCCC3)c12` (stereo not drawn): 1 to 2 µM; for `COC(=O)c1ccc2c(c1)[nH]c1nc(Cc3cccc(C(=O)C(F)(F)F)c3)nc(NCCCN3CCCCC3)c12`: 1 to 2 µM.
The same measure for `Cn1nnc(-c2ccc3c(c2)[nH]c2ncnc(N[C@H]4CC[C@H](N(C)C)CC4)c23)n1`: 0.5 to 1 µM; for `COC(=O)c1ccc2c(c1)[nH]c1ncnc(NCCc3c[nH]c4ccccc34)c12`: 2 to 5 µM.
Next, `COC(=O)c1ccc2c(c1)[nH]c1nc(Cc3ccccc3)nc(NCCCN(C)CC(O)COCc3ccccc3)c12` (stereo not drawn): 2 to 5 µM; `COC(=O)c1ccc2c(c1)[nH]c1nc(Cc3ccccc3)nc(NCC(O)CN3CCCCC3)c12` (stereo not drawn): 2 to 5 µM; `COC(=O)c1ccc2c(c1)[nH]c1ncnc(NCCN3CCCCC3)c12`: 2 to 5 µM.
With `CCNCCNc1nc(Cc2ccccc2)nc2[nH]c3cc(C(=O)OC)ccc3c12`, the IC50 is less than 0.5 µM.
The same measure for `COC(=O)c1ccc2c(c1)[nH]c1nc(C(O)c3ccccc3)nc(NCCCN3CCCCC3)c12` (stereo not drawn): 0.5 to 1 µM; for `COC(=O)c1ccc2c(c1)[nH]c1nc(Cc3cccnc3)nc(N3CCC(N4CCCC4)CC3)c12`: 2 to 5 µM.
On to `COC(=O)c1ccc2c(c1)[nH]c1nc(Cc3ccccc3)nc(NCCCN(C)CCCN)c12`, for which the IC50 lay in the range of 1 to 2 µM.
Next, `CCn1nnc(-c2ccc3c(c2)[nH]c2ncnc(NCCCN4CCCCC4)c23)n1`: 2 to 5 µM; `COC(=O)c1ccc2c(c1)[nH]c1cc(Cc3cccc(OC)c3)nc(NCCCCN3CCCC3)c12`: 1 to 2 µM; `COC(=O)c1ccc2c(c1)[nH]c1nc(Cc3ccccc3)nc(NCCNC3=NCCC3)c12`: 0.5 to 1 µM.
Take `COC(=O)c1ccc2c(c1)[nH]c1nc(CC3CCCCC3)nc(NCCCN3CCCCC3)c12`: the IC50 fell in the range of 2 to 5 µM.
On to `COC(=O)c1ccc2c(c1)[nH]c1nc(Cc3ccccc3)nc(NCCCCCCN(C)C)c12`, for which the IC50 was 0.5 to 1 µM.
The same measure for `Cn1nnc(-c2ccc3c(c2)[nH]c2ncnc(NCCCNC(=O)C(F)(F)F)c23)n1`: 2 to 5 µM.
For the molecule `COC(=O)c1ccc2c(c1)[nH]c1nc(Cc3ccccc3)nc(NCCNC(=O)C(F)F)c12`, the IC50 lay in the range of 2 to 5 µM.
Next, `c1csc(-c2ccc3c(c2)[nH]c2ncnc(NCCCN4CCCCC4)c23)c1`: 2 to 5 µM.
The same measure for `COC(=O)c1ccc2c(c1)[nH]c1nc(Cc3cccc(F)c3)nc(NCCCN(C)CCCN)c12`: 2 to 5 µM; for `CN1CCN(c2ccc(CNc3nc(Cc4ccccc4)nc4[nH]c5cc(-c6nnn(C)n6)ccc5c34)cc2)CC1`: 0.5 to 1 µM; for `COC(=O)c1ccc2c(c1)[nH]c1ncnc(N[C@H]3CC[C@@H](N)CC3)c12`: 2 to 5 µM.
Next, `CNCCCNc1ncnc2[nH]c3cc(C(=O)OC)ccc3c12`: 2 to 5 µM; `COC(=O)c1ccc2c(c1)[nH]c1ncnc(NCC(C)(C)CN)c12`: 2 to 5 µM; `COC(=O)c1ccc2c(c1)[nH]c1nc(Cc3ccsc3)nc(N[C@H]3CC[C@H](N)CC3)c12`: 1 to 2 µM.
As to `CCCCCc1nc(NCCCN2CCCCC2)c2c(n1)[nH]c1cc(C(=O)OC)ccc12`, the IC50 fell in the range of 0.5 to 1 µM.
For the molecule `CCOC(=O)c1ccc2c(c1)[nH]c1nc(Cc3ccccc3)nc(NCCCN3CCCCC3)c12`, the IC50 lay within 2 to 5 µM.
The same measure for `COC(=O)c1ccc2c(c1)[nH]c1nc(Cc3ccccc3)nc(NCC3CCCN3)c12` (stereo not drawn): 2 to 5 µM.

(Values after US20230073512A1, “MODULATORS OF CULLIN 3 ADAPTOR KBTBD4 AS ANTI-CANCER COMPOUNDS” (UNIVERSITE DE MONTREAL, priority 2019, published 2023).)
